Measured values reported in BigSolDB 2.1.

CC(C)OC(=O)[C@H](C)N[P@](=O)(Oc1ccccc1)Oc1c(F)c(F)c(F)c(F)c1F
solubility (mole fraction)
Conditions	in acetone	in acetonitrile	in ethanol	in ethyl acetate	in isopropanol	in methanol	in n-butanol	in n-propanol	in toluene	in water
278.15 K	0.00921	0.00297	0.0019	0.0073	0.00118	0.0023	0.000812	0.00144	0.00381	2.39e-05
283.15 K	0.0111	0.0036	0.00234	0.00889	0.00156	0.0028	0.0011	0.00191	0.00469	3.23e-05
288.15 K	0.0132	0.00439	0.00293	0.0108	0.00204	0.00347	0.00152	0.00246	0.00572	4.42e-05
293.15 K	0.0159	0.00538	0.00366	0.0132	0.00265	0.00423	0.00198	0.00311	0.00696	6.06e-05
298.15 K	0.019	0.00653	0.00451	0.0157	0.00343	0.00519	0.00267	0.0039	0.00848	7.96e-05
303.15 K	0.0226	0.00787	0.00556	0.0191	0.00431	0.00632	0.00348	0.0049	0.0103	0.000106
308.15 K	0.0268	0.00941	0.00686	0.0227	0.00545	0.00766	0.00463	0.00608	0.0125	0.000137
313.15 K	0.0315	0.0113	0.00836	0.0269	0.00692	0.00927	0.00609	0.00748	0.0151	0.000182
318.15 K	0.0371	0.0133	0.0101	0.032	0.00875	0.0111	0.00789	0.00927	0.0181	0.000235
